According to publication PMC6934184, “Selective DNA-PKcs inhibition extends the therapeutic index of localized radiotherapy and chemotherapy” (The Journal of Clinical Investigation, 2019):

Biological target: T1, CDK9/cyclin K (Homo sapiens, UniProt P50750)
T1 construct: purchased Thermo Fisher Scientific (Life Technologies) SelectScreen
Assay: SelectScreen LanthaScreen
Type: binding
Conditions: read-out: % displacement
Procedure, shortened: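 SelectScreen broad panel; activity (Z'LYTE, Adapta) plus binding formats. ATP: Km app for CSF1R Z'LYTE; 10 for CAMK1 Adapta. Readout = % per kinase.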

T1 sequence (P50750 whole entry): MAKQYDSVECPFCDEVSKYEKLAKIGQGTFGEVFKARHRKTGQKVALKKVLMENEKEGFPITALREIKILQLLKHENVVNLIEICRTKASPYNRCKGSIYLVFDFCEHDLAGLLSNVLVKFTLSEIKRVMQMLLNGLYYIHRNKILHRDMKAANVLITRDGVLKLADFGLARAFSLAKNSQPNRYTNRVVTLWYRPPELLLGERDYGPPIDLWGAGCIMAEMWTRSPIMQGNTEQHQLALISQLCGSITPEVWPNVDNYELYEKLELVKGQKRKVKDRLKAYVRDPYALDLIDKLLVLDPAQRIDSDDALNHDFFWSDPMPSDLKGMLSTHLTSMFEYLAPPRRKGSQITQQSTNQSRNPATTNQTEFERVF
T1 sequence (O75909 whole entry partner): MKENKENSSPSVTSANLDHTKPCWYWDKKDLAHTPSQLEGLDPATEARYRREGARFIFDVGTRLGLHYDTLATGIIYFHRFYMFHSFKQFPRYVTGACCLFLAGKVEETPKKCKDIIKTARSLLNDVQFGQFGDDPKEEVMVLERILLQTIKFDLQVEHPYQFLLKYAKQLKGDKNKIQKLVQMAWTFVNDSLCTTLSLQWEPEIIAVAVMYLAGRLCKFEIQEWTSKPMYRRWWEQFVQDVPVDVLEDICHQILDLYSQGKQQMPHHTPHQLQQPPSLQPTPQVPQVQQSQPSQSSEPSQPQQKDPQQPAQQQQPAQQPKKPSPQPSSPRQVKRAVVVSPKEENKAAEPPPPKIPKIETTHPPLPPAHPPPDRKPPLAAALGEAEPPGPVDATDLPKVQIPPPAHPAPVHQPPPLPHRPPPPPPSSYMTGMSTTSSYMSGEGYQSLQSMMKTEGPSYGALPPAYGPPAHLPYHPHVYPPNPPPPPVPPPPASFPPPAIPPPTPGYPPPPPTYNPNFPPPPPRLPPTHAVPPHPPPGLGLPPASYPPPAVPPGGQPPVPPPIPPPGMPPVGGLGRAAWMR

CN(C(=O)CN1CCOCC1)c1ccc2sc3c(-c4cccc5c(=O)cc(N6CC7CCC(C6)O7)oc45)cccc3c2c1 [NU5455]
inhibition at 1 µM: 1%
